Experimental data reported in article PMC7064328 (Environmental Health Perspectives, 2020).
Where “and” joins values, the source holds several entries; their conditions need not be identical. Equal values may be shown once.

Key:
Type in all cases: in vivo, mouse (CD-1)
[1] = test system: Pregnant CD-1 mice; assay: Litter parameters at necropsy (implantation sites, resorptions, viable and nonviable embryos); conditions: for % nonviable / % resorbed: percent of implantation sites
Procedure: (§1) On the day of necropsy, dams received daily oral gavage between 0700 and 0800 hours and were weighed and then euthanized humanely by swift decapitation, and serum was collected. In Block 1, necropsies were completed from 0800 to 1600 hours, and in Block 2, necropsies were completed from 0800 to 1200 hours. Serum from dams euthanized in Block 1 was snap frozen for internal dosimetry analyses. Serum and urine from Block 2 dams were reserved for clinical chemistry analyses. In both blocks, the uterus was removed, and total implantation sites were counted based on gross observation of an implantation nodule along the uterine horn. Viable embryos, nonviable embryos, and sites of resorption were counted based on gross observation. Embryos were considered viable if they were properly formed, were not pale in color, and were of similar size to neighboring embryos. Embryos that were poorly formed and pale in color (without heartbeat) were considered nonviable. Sites of resorption were defined as a dark red–appearing clot-like nodule apparent on gross observation.

[2] = as above; conditions: female, CD-1, mouse, in vivo, oral, percent of implantation sites
Procedure: as §1

[3] = Internal dosimetry of PFOA and GenX in maternal serum, maternal liver, amniotic fluid and whole embryos (UPLC-MS/MS)
Procedure: Solid tissues were homogenized in RODI water at a ratio of approximately 1:3 tissue mass (milligrams) to liquid volume (microliters). Maternal serum, amniotic fluid, and tissue homogenates ( 25μL ) were spiked with internal standard suspended in 0.1M formic acid in a denaturation step, followed by a subsequent protein crash using ice-cold acetonitrile. Samples were vortex mixed after addition of formic acid and acetonitrile and then centrifuged at 10,000×g for 5 min. Extract supernatants were separated using a Waters ACQUITY UPLC® (Waters Corporation) fitted with a Waters ACQUITY UPLC® BEH C18 Column ( 130Å; 1.7μm; 2.1mm×50mm ). Detection was performed using a Waters Quattro Premier™ XE tandem quadrupole mass spectrometer in negative ionization mode.

O=C(O)C(F)(F)C(F)(F)C(F)(F)C(F)(F)C(F)(F)C(F)(F)C(F)(F)F [PFOA, Perfluorooctanoic acid]
No. dead embryos ([1]; E11.5, 1 mg/kg/d): 0.0 ± 0.0 | No. implantation sites ([1]; E11.5, 1 mg/kg/d): 15.5 ± 2.7 | No. resorptions ([1]; E11.5, 1 mg/kg/d): 0.6 ± 0.5 | No. viable embryos ([1]; E11.5, 1 mg/kg/d): 14.8 ± 2.5 | No. dead embryos ([1]; E11.5, 5 mg/kg/d): 0.1 ± 0.3 | No. implantation sites ([1]; E11.5, 5 mg/kg/d): 14.5 ± 2.3 | No. resorptions ([1]; E11.5, 5 mg/kg/d): 0.5 ± 0.9 | No. viable embryos ([1]; E11.5, 5 mg/kg/d): 13.9 ± 2.2 | No. dead embryos ([1]; E17.5, 1 mg/kg/d): 0.1 ± 0.3 | No. implantation sites ([1]; E17.5, 1 mg/kg/d): 13.5 ± 2.0 | No. resorptions ([1]; E17.5, 1 mg/kg/d): 0.3 ± 0.5 | No. viable embryos ([1]; E17.5, 1 mg/kg/d): 13.1 ± 2.1 | No. dead embryos ([1]; E17.5, 5 mg/kg/d): 0.0 ± 0.0 | No. implantation sites ([1]; E17.5, 5 mg/kg/d): 13.7 ± 2.1 | No. resorptions ([1]; E17.5, 5 mg/kg/d): 0.3 ± 0.5 | No. viable embryos ([1]; E17.5, 5 mg/kg/d): 13.3 ± 1.9 | % nonviable ([1]; E11.5, 1 mg/kg/d): 0.0 ± 0.0% | % resorbed ([1]; E11.5, 1 mg/kg/d): 4.0 ± 3.3% | % nonviable ([1]; E11.5, 5 mg/kg/d): 0.6 ± 1.9% | % resorbed ([1]; E11.5, 5 mg/kg/d): 3.6 ± 5.9% | % nonviable ([1]; E17.5, 1 mg/kg/d): 0.6 ± 2.1% | % resorbed ([1]; E17.5, 1 mg/kg/d): 2.6 ± 3.9% | % nonviable ([1]; E17.5, 5 mg/kg/d): 0.0 ± 0.0% | % resorbed ([1]; E17.5, 5 mg/kg/d): 2.3 ± 3.4% | viability ([2]; 1 mg/kg/d, E11.5): 96 ± 3.3% | viability ([2]; 1 mg/kg/d, E17.5): 96.8 ± 4.1% | viability ([2]; 5 mg/kg/d, E11.5): 95.9 ± 5.9% | viability ([2]; 5 mg/kg/d, E17.5): 97.7 ± 3.4% | Amniotic fluid concentration ([3]; E11.5, 1 mg/kg/d): 4.6 ± 2.8 µg/mL | Maternal liver concentration ([3]; E11.5, 1 mg/kg/d): 48.3 ± 12.5 µg/g | Maternal serum concentration ([3]; E11.5, 1 mg/kg/d): 25.4 ± 3.7 µg/mL | Whole embryo concentration ([3]; E11.5, 1 mg/kg/d): 0.80 ± 0.10 µg/g | Amniotic fluid concentration ([3]; E11.5, 5 mg/kg/d): 8.8 ± 2.7 µg/mL | Maternal liver concentration ([3]; E11.5, 5 mg/kg/d): 151.5 ± 18.5 µg/g | Maternal serum concentration ([3]; E11.5, 5 mg/kg/d): 117.3 ± 20.6 µg/mL | Whole embryo concentration ([3]; E11.5, 5 mg/kg/d): 2.34 ± 0.27 µg/g and 2.34 ± 0.3 µg/g | Female embryo concentration ([3]; E17.5, 1 mg/kg/d): 5.78 ± 0.81 µg/g | Male embryo concentration ([3]; E17.5, 1 mg/kg/d): 5.78 ± 0.82 µg/g | Maternal liver concentration ([3]; E17.5, 1 mg/kg/d): 181.1 ± 46.0 µg/g | Maternal serum concentration ([3]; E17.5, 1 mg/kg/d): 18.7 ± 3.2 µg/mL | Whole embryo concentration ([3]; E17.5, 1 mg/kg/d): 5.78 ± 0.71 µg/g | Female embryo concentration ([3]; E17.5, 5 mg/kg/d): 16.1 ± 2.75 µg/g | Male embryo concentration ([3]; E17.5, 5 mg/kg/d): 16.9 ± 1.88 µg/g | Maternal liver concentration ([3]; E17.5, 5 mg/kg/d): 159.2 ± 21.7 µg/g | Maternal serum concentration ([3]; E17.5, 5 mg/kg/d): 95.1 ± 14.1 µg/mL | Whole embryo concentration ([3]; E17.5, 5 mg/kg/d): 16.4 ± 1.75 µg/g | Maximum bioaccumulation in maternal liver ([3]; by E17.5, regardless of PFOA dose group): 160–180 μg PFOA/g liver

N.O=C(O)C(F)(OC(F)(F)C(F)(F)C(F)(F)F)C(F)(F)F (stereo not drawn) [GenX, ammonium 2,3,3,3-tetrafluoro-2-(heptafluoropropoxy)propanoate]
No. dead embryos ([1]; E11.5, 2 mg/kg/d): 0.0 ± 0.0 | No. implantation sites ([1]; E11.5, 2 mg/kg/d): 14.7 ± 2.7 | No. resorptions ([1]; E11.5, 2 mg/kg/d): 0.7 ± 0.8 | No. viable embryos ([1]; E11.5, 2 mg/kg/d): 14.0 ± 2.9 | No. dead embryos ([1]; E11.5, 10 mg/kg/d): 0.1 ± 0.3 | No. implantation sites ([1]; E11.5, 10 mg/kg/d): 14.8 ± 3.7 | No. resorptions ([1]; E11.5, 10 mg/kg/d): 0.9 ± 1.3 | No. viable embryos ([1]; E11.5, 10 mg/kg/d): 13.8 ± 3.7 | No. dead embryos ([1]; E17.5, 2 mg/kg/d): 0.1 ± 0.3 | No. implantation sites ([1]; E17.5, 2 mg/kg/d): 13.8 ± 2.0 | No. resorptions ([1]; E17.5, 2 mg/kg/d): 0.2 ± 0.6 | No. viable embryos ([1]; E17.5, 2 mg/kg/d): 13.5 ± 2.1 | No. dead embryos ([1]; E17.5, 10 mg/kg/d): 0.0 ± 0.0 | No. implantation sites ([1]; E17.5, 10 mg/kg/d): 12.5 ± 3.1 | No. resorptions ([1]; E17.5, 10 mg/kg/d): 0.5 ± 0.7 | No. viable embryos ([1]; E17.5, 10 mg/kg/d): 12.0 ± 3.0 | % nonviable ([1]; E11.5, 2 mg/kg/d): 0.0 ± 0.0% | % resorbed ([1]; E11.5, 2 mg/kg/d): 5.0 ± 6.2% | % nonviable ([1]; E11.5, 10 mg/kg/d): 2.1 ± 7.2% | % resorbed ([1]; E11.5, 10 mg/kg/d): 5.6 ± 7.7% | % nonviable ([1]; E17.5, 2 mg/kg/d): 0.7 ± 2.4% | % resorbed ([1]; E17.5, 2 mg/kg/d): 1.2 ± 4.1% | % nonviable ([1]; E17.5, 10 mg/kg/d): 0.0 ± 0.0% | % resorbed ([1]; E17.5, 10 mg/kg/d): 3.5 ± 5.3% | viability ([2]; 2 mg/kg/d, E11.5): 95 ± 6.2% | viability ([2]; 2 mg/kg/d, E17.5): 98.1 ± 4.6% | viability ([2]; 10 mg/kg/d, E11.5): 92.4 ± 9.3% | viability ([2]; 10 mg/kg/d, E17.5): 96.5 ± 5.3% | Serum concentration, pregnant mice ([3]; 2 mg/kg/d): ~33000 ng/mL | Dam serum concentration ([3]; 10 mg/kg/d throughout gestation): ~100 µg/mL | Amniotic fluid concentration ([3]; E11.5, 2 mg/kg/d): 3.6 ± 2.2 µg/mL | Maternal liver concentration ([3]; E11.5, 2 mg/kg/d): 5.45 ± 3.43 µg/g | Maternal serum concentration ([3]; E11.5, 2 mg/kg/d): 33.5 ± 15.7 µg/mL | Whole embryo concentration ([3]; E11.5, 2 mg/kg/d): 0.91 ± 0.22 µg/g and 0.91 ± 0.2 µg/g | GenX accumulation in dam serum higher than accumulation of PFOA ([3]; E11.5, 2 mg/kg/d GenX vs 1 mg/kg/d PFOA): 32% | Amniotic fluid concentration ([3]; E11.5, 10 mg/kg/d): 9.3 ± 2.0 µg/mL | Maternal liver concentration ([3]; E11.5, 10 mg/kg/d): 19.9 ± 4.2 µg/g | Maternal serum concentration ([3]; E11.5, 10 mg/kg/d): 118.1 ± 10.4 µg/mL | Whole embryo concentration ([3]; E11.5, 10 mg/kg/d): 3.21 ± 0.51 µg/g and 3.21 ± 0.5 µg/g | Female embryo concentration ([3]; E17.5, 2 mg/kg/d): 3.39 ± 1.44 µg/g | Male embryo concentration ([3]; E17.5, 2 mg/kg/d): 3.04 ± 1.27 µg/g | Maternal liver concentration ([3]; E17.5, 2 mg/kg/d): 4.56 ± 2.80 µg/g | Maternal serum concentration ([3]; E17.5, 2 mg/kg/d): 22.9 ± 17.1 µg/mL | Whole embryo concentration ([3]; E17.5, 2 mg/kg/d): 3.23 ± 1.28 µg/g | Female embryo concentration ([3]; E17.5, 10 mg/kg/d): 6.89 ± 2.72 µg/g | Male embryo concentration ([3]; E17.5, 10 mg/kg/d): 7.55 ± 3.35 µg/g | Maternal liver concentration ([3]; E17.5, 10 mg/kg/d): 14.2 ± 7.6 µg/g | Maternal serum concentration ([3]; E17.5, 10 mg/kg/d): 58.5 ± 34.5 µg/mL | Whole embryo concentration ([3]; E17.5, 10 mg/kg/d): 7.69 ± 2.92 µg/g
